{"source": "patent US8536164B2", "about": "“Fused pyridine compounds as casein kinase inhibitors” (Pfizer Inc., priority 2010, dated 2013)", "key": {"[1]": {"biological_target": "T1, human CK1δ (Cos 7 cells cotransfected with mouse Per3-GFP) (Homo sapiens, UniProt P48730)", "T1 construct": "His tag of the vector pcDNA4/hisA (only the vector name is printed); expressed in transfected cells; host or cells: Cos 7 cells", "T1 sequence (P48730 whole entry)": "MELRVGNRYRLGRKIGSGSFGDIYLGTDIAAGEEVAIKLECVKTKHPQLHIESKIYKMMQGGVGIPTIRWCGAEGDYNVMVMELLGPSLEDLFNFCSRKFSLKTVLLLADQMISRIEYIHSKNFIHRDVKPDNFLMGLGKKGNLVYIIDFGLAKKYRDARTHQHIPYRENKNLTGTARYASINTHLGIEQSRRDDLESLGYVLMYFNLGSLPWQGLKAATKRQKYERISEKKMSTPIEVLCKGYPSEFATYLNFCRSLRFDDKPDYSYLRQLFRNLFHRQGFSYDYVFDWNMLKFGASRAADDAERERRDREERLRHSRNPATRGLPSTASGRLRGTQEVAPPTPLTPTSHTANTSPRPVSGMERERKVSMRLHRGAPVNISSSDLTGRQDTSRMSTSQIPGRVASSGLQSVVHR", "test": "CK1 WCA HCS nuclear translocation assay (CK1δ)", "format": "cell-based", "settings": "inhibition of mPer3-GFP translocation to the nucleus, overnight exposure, read-out: CK1 δ WCA EC50", "method": "(§1) CK1 WCA HCS Nuclear Translocation Assay.\n(§2) Cos 7 cells were maintained at 37° C. in 5% CO2 in Dulbecco's Modified Eagle Medium (Gibco 11995) supplemented with 10% fetal bovine serum. Log-phase cells were dislodged with 5 min treatment of TrypLE Express (Gibco 12605) and viable cell count was determined with Cedex cell counter. Cells were diluted in DMEM medium to a density of 1.5e5 viable cells/mL in ⅔ of the final volume of final transfected cell mix. Cells were cotransfected with two plasmid DNAs, mouse Per3-GFP (green fluorescent protein) in pd2EGFP-N1 vector and human CKI in pcDNA4/hisA vector (for CK1Epsilon at a ratio of 1:5 respectively; for CK1δ at a ratio of 1:11 respectively), using Lipofectamine 2000 reagent (Invitrogen) according to the manufacturer's recommendations. The transfection mix contained approximately 0.83 μg/mL of DNA and 6 μL/mL of Lipofectamine 2000, in a total of ⅓ of the final transfection volume in Opti-MEM I medium (Invitrogen). After 20 min at rt, the cell mix was combined with the DNA transfection mix, per manufacturer instructions. 50 μL of the transfected cell suspension was dispensed per well by multidrop dispenser into Greiner 384-well Cellcoat (PDL) plates (Greiner #781946).\n(§3) Compounds were solubilized in 100% DMSO, diluted with Opti-MEM I to a 4× concentration before addition to plated cells. After overnight exposure at 37° C. in a CO2 incubator, cells were fixed by the addition of 12% paraformaldehyde (Electron Microscopy Sciences, Hatfield, Pa.) in phosphate-buffered saline (PBS) with 20% sucrose to a final concentration of 4%, and then the cells were incubated for 30 min at rt. Fixative was removed, and cells were washed with PBS and then stained with 0.4 μg/ml Hoechst dye (Invitrogen) in blocking buffer containing 4% goat serum (Vector Labs s-1000) and 0.1% TritonX (Sigma T8787) for 1 h. Cells were washed again with PBS and stored at 4° C. in PBS or scanned immediately with the Cellomics ArrayScan VTI. CKIδ dependent nuclear localization of the GFP-tagged mPer3 protein was quantitated using the Cellomics ArrayScan VTI system utilizing the Cytoplasm to Nucleus translocation bioapplication to calculate the Nuclear-Cytoplasmic Intensity difference. Inhibitors of CK1 δ/ε were tested across a dose response curve to evaluate their ability to inhibit mPer3-GFP translocation to the nucleus. Cells with a total intensity of mPER3:GFP expression equal to or greater than 20,000 are included in analysis."}, "CKIδ wild type": {"biological_target": "CKIδ wild type (Homo sapiens, UniProt P48730)", "sequence (P48730 whole entry)": "as above", "test": "CK1δ kinase assay (Kinase-Glo)", "format": "biochemical", "settings": "10 μM ATP, 2 nM CKIδ, 85 min at 25° C.; read-out: CK1 δ IC50", "method": "(§4) The CK1δ kinase assay was performed in a 40 μl final volume in buffer containing 50 mM Tris, pH 7.5, 10 mM MgCl2, 1 mM dithiothreitol, 100 μg/mL BSA with 10 μM ATP, 2 nM CKIδ wild type, and 42 μM peptide substrate PLSRTLp[…] (Flotow et al., 1990) in the presence of 1 μl of CKIδ inhibitor or 4% DMSO. The reaction was incubated for 85 min at 25° C.; detection was carried out as described for the Kinase-Glo Assay (Promega). Luminescent output was measured on the Perkin Elmer Envision plate reader (PerkinElmer, Waltham, Mass.)."}, "[2]": {"biological_target": "T2, human CK1Epsilon (Cos 7 cells cotransfected with mouse Per3-GFP) (Homo sapiens, UniProt P49674)", "T2 construct": "His tag of the vector pcDNA4/hisA (only the vector name is printed); expressed in transfected cells; host or cells: Cos 7 cells", "T2 sequence (P49674 whole entry)": "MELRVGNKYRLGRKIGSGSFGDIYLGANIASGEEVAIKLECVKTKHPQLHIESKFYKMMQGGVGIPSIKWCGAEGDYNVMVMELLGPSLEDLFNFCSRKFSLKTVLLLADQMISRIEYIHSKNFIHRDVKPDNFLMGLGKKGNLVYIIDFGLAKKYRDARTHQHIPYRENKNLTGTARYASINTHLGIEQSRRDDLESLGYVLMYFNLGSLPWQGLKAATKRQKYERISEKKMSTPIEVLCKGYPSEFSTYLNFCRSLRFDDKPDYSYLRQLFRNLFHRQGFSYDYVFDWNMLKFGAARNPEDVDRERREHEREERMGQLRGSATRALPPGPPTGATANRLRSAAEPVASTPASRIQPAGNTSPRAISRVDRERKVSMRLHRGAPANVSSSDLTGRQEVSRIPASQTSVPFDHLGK", "test": "CK1 WCA HCS nuclear translocation assay (CK1ε)", "format": "cell-based", "settings": "inhibition of mPer3-GFP translocation to the nucleus, overnight exposure, read-out: CK1 ε WCA EC50", "method": "as §1, §2, §3"}, "CKI ε wild type": {"biological_target": "CKI ε wild type (Homo sapiens, UniProt P49674)", "sequence (P49674 whole entry)": "as above", "test": "CK1ε kinase assay (Kinase-Glo)", "format": "biochemical", "settings": "10 μM ATP, 2.5 nM CKI ε, 70 min at 25° C.; read-out: CK1 ε:IC50", "method": "as §4, with “The CK1ε” for “The CK1δ”, “a 40-μl” for “a 40 μl”, “ATP, 2.5” for “ATP, 2”, “nM CKI ε” for “nM CKIδ”, “of CKI ε” for “of CKIδ”, “for 70” for “for 85”"}}, "note": "pEC50, pIC50: −log10 of the molar value.", "data": [{"smiles": "Cn1cc(-c2ccnc3c2OCCNC3)c(-c2ccc(F)cc2)n1", "note": "[Example 7, 9-[3-(4-fluorophenyl)-1-methyl-1H-pyrazol-4-yl]-2,3,4,5-tetrahydropyrido[2,3-f][1,4]oxazepine]", "values": [{"measurement": "pEC50", "setting": "[1]", "result": 7.41}, {"measurement": "pIC50", "setting": "CKIδ wild type", "result": 8.22}, {"measurement": "pEC50", "setting": "[2]", "result": 6.54}, {"measurement": "pIC50", "setting": "CKI ε wild type", "result": 7.56}]}, {"smiles": "Cn1cc(-c2ccnc3c2C(=O)OC3)c(-c2ccc(F)cc2)n1", "note": "[Example 1, 4-(3-(4-fluorophenyl)-1-methyl-1H-pyrazol-4-yl)furo[3,4-b]pyridin-5(7H)-one]", "values": [{"measurement": "pEC50", "setting": "[1]", "result": 7.22}, {"measurement": "pIC50", "setting": "CKIδ wild type", "result": 8.10}, {"measurement": "pEC50", "setting": "[2]", "result": 6.45}, {"measurement": "pIC50", "setting": "CKI ε wild type", "result": 7.57}]}, {"smiles": "Cn1cc(-c2ccnc3c2CN(S(C)(=O)=O)C3)c(-c2ccc(F)cc2)n1", "note": "[Example 10, 4-[3-(4-fluorophenyl)-1-methyl-1H-pyrazol-4-yl]-6-(methylsulfonyl)-6,7-dihydro-5H-pyrrolo[3,4-b]pyridine]", "values": [{"measurement": "pEC50", "setting": "[1]", "result": 7.87}, {"measurement": "pIC50", "setting": "CKIδ wild type", "result": 8.51}, {"measurement": "pEC50", "setting": "[2]", "result": 7.20}, {"measurement": "pIC50", "setting": "CKI ε wild type", "result": 7.97}]}, {"smiles": "Cn1cc(-c2ccnc3c2CN(C(=O)C2CCOC2)C3)c(-c2ccc(F)cc2)n1", "note": "(stereo not drawn) [Example 16, 4-[3-(4-fluorophenyl)-1-methyl-1H-pyrazol-4-yl]-6-(tetrahydrofuran-3-ylcarbonyl)-6,7-dihydro-5H-pyrrolo[3,4-b]pyridine]", "values": [{"measurement": "pEC50", "setting": "[1]", "result": 7.42}, {"measurement": "pEC50", "setting": "[2]", "result": 6.66}]}, {"smiles": "CCN1Cc2nccc(-c3cn(C)nc3-c3ccc(F)cc3)c2C1=O", "note": "[Example 34, 6-ethyl-4-[3-(4-fluorophenyl)-1-methyl-1H-pyrazol-4-yl]-6,7-dihydro-5H-pyrrolo[3,4-b]pyridin-5-one]", "values": [{"measurement": "pEC50", "setting": "[1]", "result": 7.00}, {"measurement": "pIC50", "setting": "CKIδ wild type", "result": 7.91}, {"measurement": "pEC50", "setting": "[2]", "result": 6.33}, {"measurement": "pIC50", "setting": "CKI ε wild type", "result": 7.21}]}, {"smiles": "Cn1cc(-c2ccnc3c2CN(S(=O)(=O)C2CC2)C3)c(-c2ccc(F)cc2)n1", "note": "[Example 12, 6-(cyclopropylsulfonyl)-4-[3-(4-fluorophenyl)-1-methyl-1H-pyrazol-4-yl]-6,7-dihydro-5H-pyrrolo[3,4-b]pyridine]", "values": [{"measurement": "pEC50", "setting": "[1]", "result": 6.69}, {"measurement": "pEC50", "setting": "[2]", "result": 6.05}]}, {"smiles": "CC1COc2c(-c3cn(C)nc3-c3ccc(F)cc3)ccnc2CN1", "note": "(stereo not drawn) [Example 9, 9-[3-(4-fluorophenyl)-1-methyl-1H-pyrazol-4-yl]-3-methyl-2,3,4,5-tetrahydropyrido[2,3-f][1,4]oxazepine]", "values": [{"measurement": "pEC50", "setting": "[1]", "result": 6.70}, {"measurement": "pEC50", "setting": "[2]", "result": 6.08}]}, {"smiles": "CCC(=O)N1Cc2nccc(-c3cn(C)nc3-c3ccc(F)cc3)c2C1", "note": "[Example 13, 4-[3-(4-fluorophenyl)-1-methyl-1H-pyrazol-4-yl]-6-propionyl-6,7-dihydro-5H-pyrrolo[3,4-b]pyridine]", "values": [{"measurement": "pEC50", "setting": "[1]", "result": 7.79}, {"measurement": "pEC50", "setting": "[2]", "result": 6.91}]}, {"smiles": "Cn1cc(-c2ccnc3c2C(=O)NC3)c(-c2ccc(F)cc2)n1", "note": "[Example 4, 4-[3-(4-fluorophenyl)-1-methyl-1H-pyrazol-4-yl]-6,7-dihydro-5H-pyrrolo[3,4-b]pyridin-5-one]", "values": [{"measurement": "pEC50", "setting": "[1]", "result": 6.91}, {"measurement": "pIC50", "setting": "CKIδ wild type", "result": 7.86}, {"measurement": "pEC50", "setting": "[2]", "result": 6.16}, {"measurement": "pIC50", "setting": "CKI ε wild type", "result": 7.14}]}, {"smiles": "CC(=O)N1Cc2nccc(-c3cn(C)nc3-c3ccc(F)cc3)c2C1", "note": "[Example 14, 6-acetyl-4-[3-(4-fluorophenyl)-1-methyl-1H-pyrazol-4-yl]-6,7-dihydro-5H-pyrrolo[3,4-b]pyridine]", "values": [{"measurement": "pEC50", "setting": "[1]", "result": 7.40}, {"measurement": "pEC50", "setting": "[2]", "result": 6.82}]}]}
